# Measured values reported in patent US8314088B2, “Pyrazinooxazepine derivatives” (Takeda Pharmaceutical Company Limited, priority 2009, dated 2012).
# What was measured:
# [1] = target: serotonin 5-HT2C receptor (Homo sapiens, UniProt P28335, I156V/I160V/N158S); assay type: cell-based
# [2] = tested on: SD female rats; assay: stress urinary incontinence: leak point pressure before and after administration (Experimental Example 5a); assay type: in vivo, rat; settings: i.v., spinal cord-transected SD female rats
# Experimental: The effect of the compound of the present invention for stress urinary incontinence was measured by comparing the leak point pressure before and after the administration of the compound as shown below. SD female rats (body weight 200-270 g) were anesthetized with urethane (Wako Pure Chemical Industries, Ltd.), and the spinal cord was cut at T8-9 level to eliminate the micturition reflex. During the operation, isoflurane anesthesia was added as necessary. The rats were fixed at a dorsal position, and two catheters (PE-100; Clay Adams) were indwelled in the bladder. One of the catheters was filled with saline stained with Evans Blue dye (Merck), and connected to a 50 ml syringe (TERUMO CORPORATION) fixed on an infusion pump (KD Scientific) via a three-way cock. The other catheter was connected to a pressure transducer (DX-100; NIHON KOHDEN CORPORATION), and signals of the transducer were transmitted to computer via an amplifier (blood pressure amplification unit AP-641G; NIHON KOHDEN CORPORATION) and a data analyzer (BIOPAC; MP100), and recorded on a hard disk. The data was analyzed on the computer using a software (BIOPAC; AcqKnowledge). A DMA/PEG400 (1:1) solution was intravenously administered to the rats at 0.5 mL/kg. From 10 min later, saline was injected into the bladder using the infusion pump at a rate of 360 ml/hr, infusion was stopped on the moment fluid leakage from the urethral meatus was observed, and the solution in the bladder was discharged by opening the three-way cock. The maximum intravesical pressure during infusion was taken as a leak point pressure, which was measured repeatedly until the value was stabilized, and the average value of the last three measures was taken as the data. […] Williams test was used for statistical calculation.
# [3] = tested on: Male F344 rats; assay: obesity: food consumption after single gavage dose (Experimental Example 6a); assay type: in vivo, rat; settings: 0.5 mg/mL in 0.5% methylcellulose, 2 mL/kg by gavage; 24 hr after administration; obese F344 rats on high-fat diet
# Experimental: Experimental Example 6a The effect of the compound of the present invention for obesity was measured using the food consumption calculated as follows as an index. Male F344 rats (CLEA Japan, Inc.) were purchased at 5 weeks of age, and raised by groups on a solid high-fat diet with fat content 45 kcal % (D12451, Research Diets). When sufficient obesity was observed (40 to 60-week-old), they were raised singly, and given a powder high-fat diet with lipid content 45 kcal % […], Research Diets) in a feeder. The rats were grouped using body weight and food consumption (18:00-8:00) one day before administration as indices. […] A 0.5% methylcellulose solution was administered to the control group. After administration, a previously-weighed feeder was placed in the breeding cage. The feeder was weighed 24 hr after the administration and the food consumption was calculated.
# [4] = tested on: female spinal cord-transected rats with bilaterally transected hypogastric nerve and pudendal nerve; assay: organ prolapse: urethral closure response induced by increased intravesical pressure (Experimental Example 7a); assay type: in vivo, rat; parameters: unit not given here; settings: 1 mg/kg, i.v.; evaluated 10 min after administration
# Experimental: The effect of the compound of the present invention for organ prolapse was measured by examining the enhancement of urethral closure response by pelvic floor muscles (iliococcygeal muscle, pubococcygeal muscle etc.) induced by an increased intravesical pressure, by compound administration. The enhancing action of the compound on urethral closure response induced by an increased intravesical pressure was measured using female spinal cord-transected rats with bilaterally transected hypogastric nerve and pudendal nerve. SD female rats (body weight 246-298 g) were anesthetized with urethane, and the spinal cord was cut at T8-9 level to eliminate the micturition reflex. During the operation, isoflurane anesthesia was added as necessary. After abdominal section, bladder neck was ligated with a suture thread, and then the hypogastric nerve and pudendal nerve were bilaterally transected. […] The changes in the topical pressure within the urethra (hereinafter conveniently indicated as urethral pressure) as measured by the microtip transducer was transmitted to a computer via an amplifier and a data intake device, and recorded on a hard disc. […] The reaction of the urethra induced by an increased intravesical pressure was measured repeatedly until the value is stabilized, and the average of the last 2 measures was taken as the value before drug administration. […]
# [5] = tested on: male F344 rats (DIO-F344 rat); assay: obesity: body weight and food consumption in high-fat diet-loaded rats, osmotic pump (Experimental Example 6b); assay type: in vivo; settings: subcutaneous osmotic pump; for body weight loss (%): 14 days
# Experimental: The effect of the compound of the present invention for obesity was measured using high-fat diet-loaded rats based on the effects on body weight and food consumption. 38 to 60-week-old male F344 rats (DIO-F344 rat) raised on a […] fat high-fat diet (D12451, Research Diets) from 7 weeks of age were used. They were grouped based on the body weight one day before operation. The compound of Example 8 was dissolved in saline, filled in an osmotic pump (Alzet osmotic pump 2mL2 type), and subcutaneously implanted under isoflurane anesthesia. The body weight was measured on completion of the operation, and measured again at 14 days postoperation. In addition, the amount of remaining food was measured, and food consumption for 14 days was measured. For statistical calculation, Williams test was used.
# Chain of serotonin 5-HT2C receptor (P28335 33-458 I156V/N158S/I160V limits assumed): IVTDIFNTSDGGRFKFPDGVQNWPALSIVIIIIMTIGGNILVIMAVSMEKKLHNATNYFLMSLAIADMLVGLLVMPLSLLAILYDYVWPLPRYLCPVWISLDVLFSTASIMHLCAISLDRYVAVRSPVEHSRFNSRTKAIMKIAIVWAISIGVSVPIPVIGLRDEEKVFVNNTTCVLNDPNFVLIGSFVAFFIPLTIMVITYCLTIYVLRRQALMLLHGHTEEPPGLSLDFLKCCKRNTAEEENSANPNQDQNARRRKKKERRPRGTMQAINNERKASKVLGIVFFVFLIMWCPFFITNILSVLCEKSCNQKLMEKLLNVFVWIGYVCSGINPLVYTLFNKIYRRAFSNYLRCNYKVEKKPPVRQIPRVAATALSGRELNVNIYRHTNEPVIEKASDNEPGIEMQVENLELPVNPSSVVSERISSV
structure (smiles),measurement,setting,value
"C[C@@H]1COCCN1c1cnc2c(n1)O[C@@H](C)CNC2.Cl [Example 7, (6S)-6-methyl-3-[(3R)-3-methylmorpholin-4-yl]-6,7,8,9-tetrahydropyrazino[2,3-f][1,4]oxazepine hydrochloride]",ratio (%) relative to maximum response by 5-HT (1 μM),[1],108%
"CC[C@@H]1COCCN1c1cnc2c(n1)OCCNC2.Cl [Example 9, 3-[(3R)-3-ethylmorpholin-4-yl]-6,7,8,9-tetrahydropyrazino[2,3-f][1,4]oxazepine hydrochloride]",ratio (%) relative to maximum response by 5-HT (1 μM),[1],103%
"C[C@H]1CNCc2ncc(N3CCOCC3)nc2O1 [Example 6, (6S)-6-methyl-3-(morpholin-4-yl)-6,7,8,9-tetrahydropyrazino[2,3-f][1,4]oxazepine]",ratio (%) relative to maximum response by 5-HT (1 μM),[1],102%
"CC(C)Oc1cnc2c(n1)OCCNC2.Cl [Example 2, 3-(1-methylethoxy)-6,7,8,9-tetrahydropyrazino[2,3-f][1,4]oxazepine hydrochloride]",ratio (%) relative to maximum response by 5-HT (1 μM),[1],93%
"Cl.c1nc2c(nc1C1CC1)OCCNC2 [Example 10, 3-cyclopropyl-6,7,8,9-tetrahydropyrazino[2,3-f][1,4]oxazepine hydrochloride]",ratio (%) relative to maximum response by 5-HT (1 μM),[1],89%
"C[C@@H]1COCCN1c1cnc2c(n1)OCCNC2.Cl [Example 5, 3-[(3R)-3-methylmorpholin-4-yl]-6,7,8,9-tetrahydropyrazino[2,3-f][1,4]oxazepine hydrochloride]",ratio (%) relative to maximum response by 5-HT (1 μM),[1],95%
same,Change in leak point pressure (cmH2O),[2]; 0.03 mg/kg,5.2 ± 1.7 cmH2O
same,Change in leak point pressure (cmH2O),[2]; 0.1 mg/kg,9.1 ± 1.3 cmH2O
same,Change in leak point pressure (cmH2O),[2]; 0.3 mg/kg,13.6 ± 2.4 cmH2O
same,Change in leak point pressure (cmH2O),[2]; 1 mg/kg,19.6 ± 1.9 cmH2O
same,suppression of food consumption as compared to the control group,[3],21.8%
same,urethral closure respons (ratio relative to value before administration),[4],227 ± 32
"CC(C)N(C)c1cnc2c(n1)OCCNC2.Cl [Example 8, N-methyl-N-(1-methylethyl)-6,7,8,9-tetrahydropyrazino[2,3-f][1,4]oxazepin-3-amine hydrochloride]",ratio (%) relative to maximum response by 5-HT (1 μM),[1],95%
same,Change in leak point pressure (cmH2O),[2]; 0.1 mg/kg,5.4 ± 1.6 cmH2O
same,Change in leak point pressure (cmH2O),[2]; 0.3 mg/kg,10.8 ± 3.3 cmH2O
same,Change in leak point pressure (cmH2O),[2]; 1 mg/kg,17.3 ± 3.4 cmH2O
same,Change in leak point pressure (cmH2O),[2]; 3 mg/kg,23.6 ± 3.3 cmH2O
same,food consumption/14 days,[5]; 3 mg/kg/day,150 ± 7 g
same,body weight loss (%),[5]; 3 mg/kg/day,4.8 ± 0.5%
same,food consumption/14 days,[5]; 10 mg/kg/day,140 ± 6 g
same,body weight loss (%),[5]; 10 mg/kg/day,4.9 ± 0.3%
same,food consumption/14 days,[5]; 30 mg/kg/day,110 ± 2 g
same,body weight loss (%),[5]; 30 mg/kg/day,7.5 ± 0.3 %
same,urethral closure respons (ratio relative to value before administration),[4],192 ± 13
